Source: patent US20170320939A1, “COLL2-1 PEPTIDE AND ITS NITRATED FORM AS THERAPEUTIC TARGETS FOR OSTEOARTHRITIS TREATMENT” (Université de Liège, priority 2014, published 2017)
Entries after “also recorded” stand apart in the source; their conditions may differ.

Assays:
Type in all cases: cell-based, human
IL-6 = IL-6 mRNA expression by Real Time PCR in OA synovial fibroblast cells; conditions: increasing concentrations of peptide, 24 hours
Method: (§1) 1.3 Treatment of synovial fibroblast cells. Cells were seeded into a six-well plate at the density of 2×10^5 cells/well in 2 ml of CM. When the cells reached confluence, the CM was replaced with 1% serum medium for 24 h to keep the cells quiescent. Cells were incubated for 24 hours with or without peptides Coll2-1 (^108HRGYPGLDG^116; 0.45 and 4.5 nmol) or Coll2-1NO2 (^108HRGYPGLDG-NO2^116; 4 and 40 pmol) at a range of concentrations found in the blood of osteoarthritic patients.
1.4 RNA extraction and Real Time Reverse Transcriptase-Polymerase Chain Reaction (RT PCR). Total RNA were extracted using the RNeasy Mini Kit (Qiagen, Netherlands) and were reverse transcribed with SuperScript III Reverse Transcriptase (Invitrogen, Belgium) according to the manufacturer's instructions. The cDNAs were quantified by real-time quantitative PCR using the Rotor Gene instrument (Qiagen, Venlo, Netherlands) and the SYBR Premix Ex Taq kit (Takara, Verviers, Belgium). The level of gene expression was determined by interpolation with a standard curve. To standardize mRNA levels, HPRT, a house keeping gene, was amplified as an internal control. […]

IL-8 = IL-8 mRNA expression by Real Time PCR in OA synovial fibroblast cells; conditions: 24 hours
Method: as §1
1.4 RNA extraction and Real Time Reverse Transcriptase-Polymerase Chain Reaction (RT PCR). Total RNA were extracted using the RNeasy Mini Kit (Qiagen, Netherlands) and were reverse transcribed with SuperScript III Reverse Transcriptase (Invitrogen, Belgium) according to the manufacturer's instructions. The cDNAs were quantified by real-time quantitative PCR using the Rotor Gene instrument (Qiagen, Venlo, Netherlands) and the SYBR Premix Ex Taq kit (Takara, Verviers, Belgium). The level of gene expression was determined by interpolation with a standard curve. To standardize mRNA levels, HPRT, a house keeping gene, was amplified as an internal control. The oligonucleotide primers sequences were as follow: HPRT forward, 5′-[…]-3′ (SEQ ID NO: 2); HPRT reverse, 5′-TGCCTGACCAAGGAAAGC-3′ (SEQ ID NO: 3); TSP-1 forward, 5′-CAGACCGCATTGGAGATAC-3′ (SEQ ID NO: 4); TSP-1 reverse, 5′-[…]-3′ (SEQ ID NO: 5); VEGF forward, 5′-TGCCTTGCTGCTCTAC-3′ (SEQ ID NO: 6); VEGF reverse, 5′-CACACAGGATGGCTTGAA-3′ (SEQ ID NO: 7); IL-6 forward, 5′-AAACAAATTCGGTACATCCTCG-3′ (SEQ ID NO: 8); IL-6 reverse, 5′-CCA GGC AAG TCT CCT CAT-3′ (SEQ ID NO: 9); IL-8 forward, 5′-GGAACCATCTCACTGTGTGTAA-3′ (SEQ ID NO: 10); IL-8 reverse, 5′-TGGAAAGGTTTGGAGTATGTCT-3′ (SEQ ID NO: 11).

[1] = test system: OA synovial fibroblast cells; assay: NO production in OA synovial fibroblast cells; conditions: Coll2-1 (0.45 and 4.5 nmol) or Coll2-1NO2 (4 and 40 pmol), 24 hours
Method: 1.1 Patients. Synovial tissue samples were obtained from 10 patients (8 women, 2 man; mean age 70 +/−6 years) with osteoarthritis (OA) of the knee at the time of total knee joint replacement surgery. All the subjects provided their informed consent.
1.2 Isolation and culture of synovial cells. Synovium biopsies were digested is with collagenase from Clostridium histolyticum, Type IA (1 mg/ml) (Sigma-Aldrich, Saint-Louis, USA) and 0.25% trypsin (Sigma Aldrich, Saint Louis, USA) with 0.68 mM EDTA in Tris buffer 0.1M, pH 7.4 in complete medium (CM) (DMEM (Dulbecco's Modified Eagle's Medium) Low Glucose supplemented with 10 mM HEPES, 100 U/ml penicillin, 100 μg/ml streptomycin, 2 mM glutamine and 10% fetal calf serum (Lonza, Verviers, Belgium)) for 1 hour at 37° C. The cells suspensions were passed through a 70-μm filter to remove any undigested tissue. The filtered cells suspensions were then collected by centrifugation at 800 g and were cultured in culture flasks. After 24 hours, medium was changed to eliminate non adherent cells. Synovial fibroblasts cells (SFC) were used after three passages. […]
1.7 NO production. Nitric oxide production was evaluated using a DAF2-DA fluorescent probe (Molecular Probes, Leiden, The Netherlands). […] The fluorescence intensity was measured every hour for 6 hours. […] The numbers of adherent cells were measured by cristal violet assay.

## HRGYPGLDG [Coll2-1]
IL-6
  IL-6 expression: increased
IL-8; Coll2-1 at 0.45 nmol
  IL8 gene expression: dose-dependently increased
IL-8; Coll2-1 at 4.5 nmol
  IL8 gene expression: dose-dependently increased
IL-8; increasing concentrations: Coll2-1 (0.45 and 4.5 nmol) or Coll2-1NO2 (4 and 40 pmol)
  IL-8 expression: increased
[1]
  production of NO (nitric oxide): decreased significantly; also recorded: decrease
